Numbered stars: 1 amine (or outer) side, 2 acyl side, 3 side chain; on linkers, the order of the positions; unused ones are H or OH. Bridge positions count the residues as written; N and C are the ends. Square brackets hold non-standard residues; d marks the D form. Peptide text beside a SMILES is read from it. I, II: the chains in the order shown. Phe(4-tBu) = CC(C)(C)c1ccc(C[C@H](N)C(=O)O)cc1; Diglycolyl = O=C(COCC(=O)[*:2])[*:1]; NMeR = CN[C@@H](CCCNC(=N)N)C(=O)O; β3hE = N[C@@H](CCC(=O)O)CC(=O)O; Pen = CC(C)(S)[C@H](N)C(=O)O
Legend:
[1] = Simulated Gastric Fluid (SGF) Assay; assay type: in vitro ADME; details: pig, simulated gastric fluid (SGF) with porcine pepsin, pH 2; Table 4-C, t1/2
Summary of the method: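 Peptides at 20 μM final in simulated gastric fluid (NaCl, porcine pepsin, HCl; pH 2) at 37° C with shaking. Samples taken at 0, 15, 30 and 60 min, quenched in acetonitrile/0.1% formic acid and quantified by LC-MS/MS against internal standard, relative to time 0. Half-life from first-order exponential decay fit.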

α4β7 = α4β7 (Homo sapiens, UniProt P13612+P26010); experiment: PBMC Memory T Cell Adhesion Assay, adhesion to MAdCAM-1; assay type: cell-based; details: Table 4-B; read-out: Cell Adhesion PBMC IC50
Summary of the method: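 Fresh human CD4+/CD45RO+ memory T cells in binding medium with 1 mM MnCl2 were preincubated with compound for 1.5 h at 37° C. on plates coated with Fc-captured MAdCAM-1 (400 ng/well). Adherent cells were read by fluorescence (Ex 485/Em 530). IC50 came from four-parameter nonlinear regression of RFU versus log concentration.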

α4β1 = molecular target: T1, α4β1 (Homo sapiens, UniProt P05556+P13612, DEL729-798); experiment: α4β1-VCAM Competition ELISA; assay type: binding; details: Table 4-B; read-out: ELISA_α4β1 IC50
T1 construct: purchased R&D Systems 5668-A4
Summary of the method: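 Recombinant α4β1 (60 nM final) competed with serially diluted peptides (top final 100 μM) for VCAM-1 Fc coated at 400 ng/well, in Tris pH 7.6 with 1 mM MnCl2 or MgCl2, for 2 h at 37 °C. Bound integrin was detected with anti-CD49d 9F10 plus HRP anti-mouse IgG, using TMB read at 450 nm.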

T1 sequence (P13612 34-977 limits assumed, stated change not applied): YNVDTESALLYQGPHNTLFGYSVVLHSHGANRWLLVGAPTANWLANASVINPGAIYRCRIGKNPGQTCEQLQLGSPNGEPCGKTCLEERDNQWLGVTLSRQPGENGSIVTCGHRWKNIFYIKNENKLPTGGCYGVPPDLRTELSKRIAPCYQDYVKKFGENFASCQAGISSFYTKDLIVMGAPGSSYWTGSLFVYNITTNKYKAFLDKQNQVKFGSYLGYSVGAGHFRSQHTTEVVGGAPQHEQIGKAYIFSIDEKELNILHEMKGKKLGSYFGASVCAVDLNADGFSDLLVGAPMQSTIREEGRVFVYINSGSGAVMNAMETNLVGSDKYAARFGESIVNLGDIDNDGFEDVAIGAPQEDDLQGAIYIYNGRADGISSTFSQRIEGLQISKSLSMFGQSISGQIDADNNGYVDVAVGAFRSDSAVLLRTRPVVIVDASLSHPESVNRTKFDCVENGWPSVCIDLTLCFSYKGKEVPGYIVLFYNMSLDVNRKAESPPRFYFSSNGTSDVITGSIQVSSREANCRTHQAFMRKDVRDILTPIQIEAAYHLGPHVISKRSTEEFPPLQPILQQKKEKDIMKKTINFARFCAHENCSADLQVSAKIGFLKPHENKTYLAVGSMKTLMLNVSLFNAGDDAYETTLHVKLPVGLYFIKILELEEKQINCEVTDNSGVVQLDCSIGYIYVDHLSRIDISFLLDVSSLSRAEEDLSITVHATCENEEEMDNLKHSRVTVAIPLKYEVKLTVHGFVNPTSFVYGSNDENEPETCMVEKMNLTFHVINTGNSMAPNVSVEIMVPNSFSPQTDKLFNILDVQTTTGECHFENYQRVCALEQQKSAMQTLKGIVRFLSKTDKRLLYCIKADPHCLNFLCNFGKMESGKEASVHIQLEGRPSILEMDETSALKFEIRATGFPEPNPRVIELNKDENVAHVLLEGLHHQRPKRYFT
T1 sequence (P05556 21-728 limits assumed, stated change not applied): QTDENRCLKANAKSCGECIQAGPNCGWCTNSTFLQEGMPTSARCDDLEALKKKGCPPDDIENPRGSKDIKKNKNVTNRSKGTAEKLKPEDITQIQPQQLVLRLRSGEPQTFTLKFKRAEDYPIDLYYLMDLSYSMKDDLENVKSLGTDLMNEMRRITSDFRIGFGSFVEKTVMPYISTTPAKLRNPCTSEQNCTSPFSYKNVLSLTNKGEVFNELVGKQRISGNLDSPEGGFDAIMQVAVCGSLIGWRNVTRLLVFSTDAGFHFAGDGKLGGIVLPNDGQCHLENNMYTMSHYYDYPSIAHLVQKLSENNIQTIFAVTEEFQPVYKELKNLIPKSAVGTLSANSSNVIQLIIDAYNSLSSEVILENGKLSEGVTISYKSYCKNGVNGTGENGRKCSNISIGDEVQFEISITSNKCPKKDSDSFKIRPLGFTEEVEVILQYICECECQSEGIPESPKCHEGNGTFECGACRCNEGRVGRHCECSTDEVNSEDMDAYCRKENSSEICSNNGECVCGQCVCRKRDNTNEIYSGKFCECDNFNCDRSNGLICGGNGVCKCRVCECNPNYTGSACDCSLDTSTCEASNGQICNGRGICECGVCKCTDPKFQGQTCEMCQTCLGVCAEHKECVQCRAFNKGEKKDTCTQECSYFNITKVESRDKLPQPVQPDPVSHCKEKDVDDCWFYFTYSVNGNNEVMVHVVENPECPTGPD
Chain of α4β7 (P13612 34-1032): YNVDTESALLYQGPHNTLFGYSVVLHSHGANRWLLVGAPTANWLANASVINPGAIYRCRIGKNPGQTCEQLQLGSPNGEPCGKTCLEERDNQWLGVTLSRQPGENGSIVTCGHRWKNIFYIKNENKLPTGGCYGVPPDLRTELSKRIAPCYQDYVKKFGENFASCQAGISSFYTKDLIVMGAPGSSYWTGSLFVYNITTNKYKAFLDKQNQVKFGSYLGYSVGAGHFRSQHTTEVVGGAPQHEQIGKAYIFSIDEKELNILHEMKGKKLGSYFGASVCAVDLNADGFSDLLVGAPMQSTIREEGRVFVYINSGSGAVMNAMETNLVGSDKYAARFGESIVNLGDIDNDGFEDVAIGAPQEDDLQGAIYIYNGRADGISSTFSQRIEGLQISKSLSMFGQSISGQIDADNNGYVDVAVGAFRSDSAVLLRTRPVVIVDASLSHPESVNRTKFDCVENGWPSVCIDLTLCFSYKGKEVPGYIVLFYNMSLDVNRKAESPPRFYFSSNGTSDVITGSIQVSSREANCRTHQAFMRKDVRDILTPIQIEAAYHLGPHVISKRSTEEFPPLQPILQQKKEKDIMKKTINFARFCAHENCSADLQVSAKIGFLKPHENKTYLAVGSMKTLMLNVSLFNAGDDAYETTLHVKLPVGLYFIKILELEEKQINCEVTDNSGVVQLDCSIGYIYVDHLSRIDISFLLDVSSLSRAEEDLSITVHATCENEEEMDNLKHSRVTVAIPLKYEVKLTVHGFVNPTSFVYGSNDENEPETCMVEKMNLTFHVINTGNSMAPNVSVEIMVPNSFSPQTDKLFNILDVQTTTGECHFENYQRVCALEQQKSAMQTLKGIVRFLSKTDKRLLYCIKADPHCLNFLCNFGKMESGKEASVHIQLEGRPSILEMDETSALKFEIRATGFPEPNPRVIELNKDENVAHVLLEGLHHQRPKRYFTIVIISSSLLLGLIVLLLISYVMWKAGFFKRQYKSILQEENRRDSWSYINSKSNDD
Chain of α4β7 (P26010 20-798): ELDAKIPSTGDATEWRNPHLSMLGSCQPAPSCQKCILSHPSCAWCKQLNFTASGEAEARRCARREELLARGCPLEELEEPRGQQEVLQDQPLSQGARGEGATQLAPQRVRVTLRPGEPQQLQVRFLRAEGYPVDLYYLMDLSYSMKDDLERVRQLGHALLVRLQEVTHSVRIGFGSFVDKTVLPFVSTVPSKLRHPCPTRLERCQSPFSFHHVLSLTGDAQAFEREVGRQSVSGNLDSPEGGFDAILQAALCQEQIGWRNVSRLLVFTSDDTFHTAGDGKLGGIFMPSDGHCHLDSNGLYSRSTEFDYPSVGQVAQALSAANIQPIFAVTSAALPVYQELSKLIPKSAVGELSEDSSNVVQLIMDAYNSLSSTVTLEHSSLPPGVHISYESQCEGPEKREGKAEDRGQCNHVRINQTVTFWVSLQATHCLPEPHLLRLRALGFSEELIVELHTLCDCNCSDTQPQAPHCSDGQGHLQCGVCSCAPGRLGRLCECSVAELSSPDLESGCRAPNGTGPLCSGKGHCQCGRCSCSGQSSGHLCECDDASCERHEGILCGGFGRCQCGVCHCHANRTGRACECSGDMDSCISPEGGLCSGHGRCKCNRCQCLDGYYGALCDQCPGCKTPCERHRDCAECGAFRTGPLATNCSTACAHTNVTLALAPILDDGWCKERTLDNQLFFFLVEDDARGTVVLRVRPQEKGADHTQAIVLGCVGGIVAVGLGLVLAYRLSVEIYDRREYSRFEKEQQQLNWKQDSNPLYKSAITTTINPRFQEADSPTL

SMILES	half-life at 20 μM [1] [h]	IC50 (α4β7) [nM]	IC50 (α4β1) [nM]
CC(=O)N[C@@H]1C(=O)N(C)[C@@H](CCCNC(=N)N)C(=O)N[C@@H](CO)C(=O)N[C@@H](CC(=O)O)C(=O)N[C@@H]([C@@H](C)O)C(=O)N[C@@H](CC(C)C)C(=O)N[C@H](C(=O)N[C@@H](Cc2c[nH]c3ccccc23)C(=O)N[C@H](CCC(=O)O)C(=O)N[C@H](CCCCNC(=O)COCC(=O)NCCCC[C@@H](NC(=O)[C@@H](CCC(=O)O)NC(=O)[C@H](Cc2c[nH]c3ccccc23)NC(=O)[C@H]2NC(=O)[C@H](CC(C)C)NC(=O)[C@H]([C@@H](C)O)NC(=O)[C@H](CC(=O)O)NC(=O)[C@H](CO)NC(=O)[C@H](CCCNC(=N)N)N(C)C(=O)[C@@H](NC(C)=O)C(C)(C)SSC2(C)C)C(=O)O)C(=O)O)C(C)(C)SSC1(C)C [compound 216, (Ac-Pen-N-Me-R-S-D-T-L-Pen-W-e-k-OH)2-DIG] (I: Ac-[Pen][NMeR]SDTL[Pen]W[dE][dK]-OH / II: Ac-[Pen][NMeR]SDTL[Pen]W[dE][dK]-OH; disulfide I:1-I:7, II:1-II:7 (inferred); linker I:10-II:10 via Diglycolyl (inferred))	> 6	14.5	247
CC(=O)N[C@@H]1C(=O)N(C)[C@@H](CCCNC(=N)N)C(=O)N[C@@H](CO)C(=O)N[C@@H](CC(=O)O)C(=O)N[C@@H]([C@@H](C)O)C(=O)N[C@@H](CC(C)C)C(=O)N[C@H](C(=O)N[C@@H](Cc2ccc(C(C)(C)C)cc2)C(=O)N[C@@H](CCC(=O)O)CC(=O)N[C@H](CCCCNC(=O)COCC(=O)NCCCC[C@@H](NC(=O)C[C@H](CCC(=O)O)NC(=O)[C@H](Cc2ccc(C(C)(C)C)cc2)NC(=O)[C@H]2NC(=O)[C@H](CC(C)C)NC(=O)[C@H]([C@@H](C)O)NC(=O)[C@H](CC(=O)O)NC(=O)[C@H](CO)NC(=O)[C@H](CCCNC(=N)N)N(C)C(=O)[C@@H](NC(C)=O)C(C)(C)SSC2(C)C)C(N)=O)C(N)=O)C(C)(C)SSC1(C)C [compound 218, [Ac-Pen-(N-Me-Arg)-Ser-Asp-Thr-Leu-Pen-Phe(4-tBu)-(β-homoGlu)-(D-Lys)-NH2]2-DIG] (I: Ac-[Pen][NMeR]SDTL[Pen][Phe(4-tBu)][β3hE][dK]-NH2 / II: Ac-[Pen][NMeR]SDTL[Pen][Phe(4-tBu)][β3hE][dK]-NH2; disulfide I:1-I:7, II:1-II:7; linker I:10-II:10 via Diglycolyl)	> 6	2	490
